{"source": "paper PMC9873282", "about": "“Design, synthesis and evaluation of quinoline-O-carbamate derivatives as multifunctional agents for the treatment of Alzheimer’s disease” (Journal of Enzyme Inhibition and Medicinal Chemistry, 2023)", "key": {"IL-6": {"test_system": "IL-6", "experiment": "IL-6 production in LPS-stimulated BV-2 cells (ELISA)", "type": "cell-based", "conditions": "1 µM and 2 µM; 1 µg/mL LPS 24 h", "experimental": "(§1) Firstly, the cytotoxicity of compounds 3a, 3c, 3e, 3f, 3k, 3m and 3n were tested using CCK8 assay.\n(§2) BV-2 cells (2 × 10^5 cells/well) were seeded in a 24-well cell culture plates. The cells were divided into blank control group, model group (1 µg/mL LPS), LPS + 2 µM compound group, LPS + 1 µM compound group. Each drug group was pre-treated with corresponding concentration of drug solution for 8 h. After 8 h, the culture medium was aspirated out. Except for the blank control group, which was added with DMEM medium, the other groups were stimulated with 1 µg/mL LPS for 24 h. Then cell supernatant was aspirated and centrifuged at 3000 rpm for 3 min. The content of NO in cell culture supernatant was determined by Griess method, and the levels of cytokines IL-6 and IL-1β in cell culture supernatant were determined by IL-6 ELISA kit and IL-1β ELISA kit, respectively."}, "IL-1β": {"test_system": "IL-1β", "experiment": "IL-1β production in LPS-stimulated BV-2 cells (ELISA)", "type": "cell-based", "conditions": "1 µg/mL LPS 24 h", "experimental": "as §1, §2"}}, "data": [{"smiles": "CCN(CC)C(=O)Oc1cccc2ncccc12", "note": "[Compound 3f, Quinolin-5-yl diethylcarbamate]", "values": [{"measurement": "levels of IL-6 compared with model group", "setting": "IL-6", "result": "significantly decreased"}, {"measurement": "levels of IL-1β compared with model group", "setting": "IL-1β", "result": "significantly decreased"}]}]}
